Marks after values point to notes of the source that are not given here.
Legend:
[1] = Pharmacokinetic study in rats, single subcutaneous injection; details: male, Sprague Dawley, in vivo, sc, rat, 50 nmol/kg single subcutaneous injection, plasma
Method: The pharmacokinetic study of each polypeptide compound prepared in Example 1 was conducted using male Sprague Dawley rats. There were 3 male rats in each group. […] The dose was 50 nmol/kg, and a single subcutaneous injection was given (see Table 3 for specific peptide compounds). After administration, plasma was collected on the specified days and time points, and the concentration of each peptide compound in the plasma was detected by LC-MS/MS method. The pharmacokinetic parameters were obtained based on the concentration data, which were used to describe the pharmacokinetic properties of the peptide in rats after subcutaneous injection. Table 3: Summary of pharmacokinetic parameters of some triple-target peptides in rats

[2] = Glucose tolerance assessment in normal C57BL/6 mice (Example 4); type: in vivo; details: 3 nmol/kg s.c. single dose, 24 h after administration
Outline: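 Twelve hours after a single administration, mice were fasted 12 h and then given 2 g/kg glucose i.p. Tail-vein blood glucose was measured at baseline and at 15, 30, 60 and 90 min. AUC0–90min was calculated per dose group at 24 h post-dose.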

[3] = Glucose tolerance assessment in normal C57BL/6 mice (Example 5); type: in vivo; details: 3 nmol/kg s.c. single dose, 24 h after administration
Outline: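 Normal C57BL/6 mice given a single dose, fasted 12 h starting 12 h post-dose, then challenged with 2 g/kg glucose i.p. Tail-vein glucose measured at baseline and 15, 30, 60, 90 min. AUC0~90min calculated from the glucose–time curve per dose group.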

[4] = 15 min after 2 g/kg glucose i.p.
[5] = 30 min after 2 g/kg glucose i.p.
[6] = 60 min after 2 g/kg glucose i.p.
[7] = 90 min after 2 g/kg glucose i.p.
[8] = basal before 2 g/kg glucose i.p.
[9] = blood glucose AUC, 2 g/kg glucose i.p.

SMILES | AUC(0-inf) [1] | AUC(0-t) [1] | Cmax [1] | half-life ([1]; read-out: T1/2 (converted)) | Tmax ([1]; read-out: Tmax) | Blood glucose level (mM) 15 min [2, 4] | Blood glucose level (mM) 30 min [2, 5] | Blood glucose level (mM) 60 min [2, 6] | Blood glucose level (mM) 90 min [2, 7] | Blood glucose level (mM) 0 min [2, 8] | AUC0-90 min [2, 9] | Blood glucose level (mM) 15 min [3, 4] | Blood glucose level (mM) 30 min [3, 5] | Blood glucose level (mM) 60 min [3, 6] | Blood glucose level (mM) 90 min [3, 7] | Blood glucose level (mM) 0 min [3, 8] | AUC0-90 min [3, 9]
CC[C@H](C)[C@H](NC(=O)[C@H](Cc1ccccc1)NC(=O)[C@H](CCC(=O)O)NC(=O)[C@H](CCCNC(=N)N)NC(=O)[C@H](CCC(N)=O)NC(=O)[C@H](CCCNC(=N)N)NC(=O)[C@H](CCCCNC(=O)COCCOCCNC(=O)CC[C@H](NC(=O)CCCCCCCCCCCCCCCCC(=O)O)C(=O)O)NC(=O)[C@H](CCC(=O)O)NC(=O)[C@H](CC(=O)O)NC(=O)[C@H](CC(C)C)NC(=O)[C@H](CC(C)C)NC(=O)[C@@H](NC(=O)[C@H](CO)NC(=O)[C@H](Cc1ccc(O)cc1)NC(=O)[C@H](CC(=O)O)NC(=O)[C@H](CO)NC(=O)[C@@H](NC(=O)[C@](C)(Cc1ccccc1F)NC(=O)[C@@H](NC(=O)CNC(=O)[C@H](Cc1c[nH]cn1)NC(=O)C(C)(C)NC(=O)[C@@H](N)Cc1ccc(O)cc1)[C@@H](C)O)[C@@H](C)O)[C@@H](C)CC)C(=O)N[C@@H](CCC(=O)O)C(=O)N[C@@H](Cc1c[nH]c2ccccc12)C(=O)N[C@@H](CC(C)C)C(=O)N[C@@H](CC(C)C)C(=O)N[C@@H](C)C(=O)NCC(=O)NCC(=O)N1CCC[C@H]1C(=O)N[C@@H](CO)C(=O)N[C@@H](CO)C(=O)NCC(=O)N[C@@H](C)C(=O)N1CCC[C@H]1C(=O)N1CCC[C@H]1C(=O)N1CCC[C@H]1C(=O)N[C@@H](CO)C(=O)O [HEC-PT77] | 22.2 ± 3.84 µg·h/mL | 22 ± 3.87 µg·h/mL | 0.596 ± 0.213 µg/mL | 11 ± 1.6 h | 15 ± 11 h | 12.6 ± 3.3 mM | 9.6 ± 3.4 mM | 8.5 ± 2.7 mM | 6.9 ± 1.9 mM | 4.0 ± 0.5 mM | 776.9±227.6^a |  |  |  |  |  | 
CC[C@H](C)[C@H](NC(=O)[C@H](Cc1ccccc1)NC(=O)[C@H](C)NC(=O)[C@H](CCCNC(=N)N)NC(=O)[C@H](CCC(N)=O)NC(=O)[C@H](CCCNC(=N)N)NC(=O)[C@H](CCCCNC(=O)COCCOCCNC(=O)CC[C@H](NC(=O)CCCCCCCCCCCCCCCCCCC(=O)O)C(=O)O)NC(=O)[C@H](CCC(=O)O)NC(=O)[C@H](CC(=O)O)NC(=O)[C@H](CC(C)C)NC(=O)[C@H](CC(C)C)NC(=O)[C@@H](NC(=O)[C@H](CO)NC(=O)[C@H](Cc1ccc(O)cc1)NC(=O)[C@H](CC(=O)O)NC(=O)[C@H](CO)NC(=O)[C@@H](NC(=O)[C@](C)(Cc1ccccc1F)NC(=O)[C@@H](NC(=O)CNC(=O)[C@H](CCC(N)=O)NC(=O)C(C)(C)NC(=O)[C@@H](N)Cc1ccc(O)cc1)[C@@H](C)O)[C@@H](C)O)[C@@H](C)CC)C(=O)N[C@@H](CCC(=O)O)C(=O)N[C@@H](Cc1ccc(O)cc1)C(=O)N[C@@H](CC(C)C)C(=O)N[C@@H](CC(C)C)C(=O)N[C@@H](C)C(=O)NCC(=O)NCC(=O)N1CCC[C@H]1C(=O)N[C@@H](CO)C(=O)N[C@@H](CO)C(=O)NCC(=O)N[C@@H](C)C(=O)N1CCC[C@H]1C(=O)N1CCC[C@H]1C(=O)N1CCC[C@H]1C(=O)N[C@@H](CO)C(=O)O [HEC-PT86] |  |  |  |  |  |  |  |  |  |  |  | 13.2 ± 1.4 mM | 10.3 ± 1.9 mM | 8.8 ± 1.0 mM | 7.0 ± 0.8 mM | 3.9 ± 0.2 mM | 827.3±70.3^a

Source: EP4596574A1, “GLP-1/GCG/GIP TRIPLE-RECEPTOR AGONIST AND USE THEREOF” (Sunshine Lake Pharma Co., Ltd., priority 2022, dated 2024)
